# Measured values reported in US20250381131A1, “COMPOSITION AND METHOD FOR INHIBITING ELASTASE ACTIVITY” (ACCESS BUSINESS GROUP INTERNATIONAL LLC, priority 2022, published 2025).
# Several values for one entry are separate records, joined by “and”; a condition that tells them apart may be missing. Equal values may be shown once.
# Target: Porcine pancreatic elastase (PPE) (Sus scrofa, UniProt P00772)
# Assay: Porcine pancreatic elastase (PPE) enzyme inhibitory assay
# Type: biochemical
# Details: for Average % inhibition: average of three; for Inhibition Rate (%): single determination
# Protocol: The elastase inhibitory activity of certain plant extracts was evaluated in vitro using Porcine pancreatic elastase (PPE) enzyme inhibitory assay as described by Cannel et al. (1988) with some modifications. The assay was performed in 0.2 M Tris-HCL buffer (pH 8.0). Porcine pancreatic elastase was dissolved to make a 100 unit stock solution in sterile water. The substrate N-Succinyl-Ala-Ala-Ala-p-nitroanilide (AAAPVN) was dissolved in buffer. The plant extracts were incubated with the enzyme for 25 minutes before adding the substrate to begin the reaction. […] EGCG was used as a positive control, and tris-HCl was used as the blank.
# Maximum Velocities (Vmax) were taken at a wavelength of 410 nm for 25 minutes at 30 second intervals. Percentage inhibitions were calculated by the following equation: […]
# where Vmax(sample) is the velocity of the sample extracts and Vmax(control) is the velocity of the assay using the buffer instead of inhibitor (sample).
# Sequence of Porcine pancreatic elastase (PPE) (P00772 27-266): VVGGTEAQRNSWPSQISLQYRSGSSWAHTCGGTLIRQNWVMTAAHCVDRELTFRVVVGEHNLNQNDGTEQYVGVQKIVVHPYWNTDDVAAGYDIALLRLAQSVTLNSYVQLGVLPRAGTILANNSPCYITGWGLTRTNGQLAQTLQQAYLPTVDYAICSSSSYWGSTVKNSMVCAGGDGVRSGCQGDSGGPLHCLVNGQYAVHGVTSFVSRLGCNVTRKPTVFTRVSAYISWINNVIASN
structure (smiles),measurement,setting,value
"O=C(O[C@@H]1Cc2c(O)cc(O)cc2O[C@@H]1c1cc(O)c(O)c(O)c1)c1cc(O)c(O)c(O)c1 [EGCG, epigallocatechin gallate]",Average % inhibition,31.25 μg/ml,4.80%
same,Inhibition Rate (%),31.25 μg/ml,6.76% and 1.06% and 6.58%
same,Average % inhibition,62.5 μg/ml,15.57%
same,Inhibition Rate (%),62.5 μg/ml,20.43% and 14.78% and 11.52%
same,Average % inhibition,125 μg/ml,36.25%
same,Inhibition Rate (%),125 μg/ml,39.69% and 35.13% and 33.94%
same,Average % inhibition,250 μg/ml,41.56%
same,Inhibition Rate (%),250 μg/ml,45.23% and 41.13% and 38.32%
same,Average % inhibition,500 μg/ml,43.47%
same,Inhibition Rate (%),500 μg/ml,45.20% and 41.64% and 43.58%
same,Average % inhibition,1000 μg/ml,48.97%
same,Inhibition Rate (%),1000 μg/ml,49.48% and 47.89% and 49.56%
same,Average % inhibition,2000 μg/ml,52.78%
same,Inhibition Rate (%),2000 μg/ml,52.32% and 52.75% and 53.28%
